Experimental findings from patent US20070219203A1, “Arylalkylamino-substituted quinazoline analogues” (Neurogen Corporation, priority 2004, published 2007) are described below.

Structures are written as SMILES.

For the assay, the target named is T1, human capsaicin receptor (Homo sapiens, UniProt Q8NER1).
T1 construct: expressed in transfected cells
The assay can be described thus: Calcium mobilization assay, antagonist activity (Example 6). The conditions noted are these: 50% decrease in fluorescence response of cells expressing human capsaicin receptor exposed to capsaicin. It is filed as cell-based. The procedure: A cDNA encoding full length human capsaicin receptor (SEQ ID NO:1, 2 or 3 of U.S. Pat. No. 6,482,611) is subcloned in the plasmid pBK-CMV (Stratagene, La Jolla, Calif.) for recombinant expression in mammalian cells.
Human embryonic kidney (HEK293) cells are transfected with the pBK-CMV expression construct encoding the full length human capsaicin receptor using standard methods. The transfected cells are selected for two weeks in media containing G418 (400 μg/ml) to obtain a pool of stably transfected cells. Independent clones are isolated from this pool by limiting dilution to obtain clonal stable cell lines for use in subsequent experiments.
Cells transfected with expression plasmids (as described in Example 4) and thereby expressing human capsaicin receptor are seeded and grown to 70-90% confluency in FALCON black-walled, clear-bottomed 96-well plates (#3904, BECTON-DICKINSON, Franklin Lakes, N.J.). The culture medium is emptied from the 96 well plates and […] calcium sensitive dye (Molecular Probes, Eugene, Oreg.) is added to each well (dye solution: 1 mg […], 440 μL DMSO and 440 μl 20% pluronic acid in DMSO, diluted 1:250 in Krebs-Ringer HEPES (KRH) buffer (25 mM HEPES, 5 mM KCl, 0.96 mM NaH2PO4, 1 mM MgSO4, 2 mM CaCl2, 5 mM glucose, 1 mM probenecid, pH 7.4), 50 μl diluted solution per well). Plates are covered with aluminum foil and incubated at 37° C. for 1-2 hours in an environment containing 5% CO2. After the incubation, the dye is emptied from the plates, and the cells are washed once with KRH buffer, and resuspended in KRH buffer.
To measure the ability of a test compound to agonize or antagonize a calcium mobilization response in cells expressing capsaicin receptors to capsaicin or other vanilloid agonist, the EC50 of the agonist capsaicin is first determined. An additional 20 μl of KRH buffer and 1 μl DMSO is added to each well of cells, prepared as described above. 100 μl capsaicin in KRH buffer is automatically transferred by the FLIPR instrument to each well. Capsaicin-induced calcium mobilization is monitored using either FLUOROSKAN ASCENT (Labsystems; Franklin, Mass.) or FLIPR (fluorometric imaging plate reader system; Molecular Devices, Sunnyvale, Calif.) instruments. Data obtained between 30 and 60 seconds after agonist application are used to generate an 8-point concentration response curve, with final capsaicin concentrations of 1 nM to 3 μM. KALEIDAGRAPH software (Synergy Software, Reading, Pa.) is used to fit the data to the equation: y=a*(1/(1+(b/x)^c)) to determine the 50% excitatory concentration (EC50) for the response. In this equation, y is the maximum fluorescence signal, x is the concentration of the agonist or antagonist (in this case, capsaicin), a is the Emax, b corresponds to the EC50 value and c is the Hill coefficient. Determination of Agonist Activity
Test compounds are dissolved in DMSO, diluted in 20 μl KRH buffer so that the final concentration of test compounds in the assay well is between 1 μM and 5 μM, and added to cells prepared as described above. The 96 well plates containing prepared cells and test compounds are incubated in the dark, at room temperature for 0.5 to 6 hours. It is important that the incubation not continue beyond 6 hours. Just prior to determining the fluorescence response, 100 μl capsaicin in KRH buffer at twice the EC50 concentration determined as described above is automatically added by the FLIPR instrument to each well of the 96 well plate for a final sample volume of 200 μl and a final capsaicin concentration equal to the EC50. The final concentration of test compounds in the assay wells is between 1 μM and 5 μM. […] The concentration of antagonist required to provide a 50% decrease, relative to the response observed in the presence of capsaicin and without antagonist, is the IC50 for the antagonist, and is preferably below 1 micromolar, 100 nanomolar, 10 nanomolar or 1 nanomolar.

T1 sequence (Q8NER1 whole entry): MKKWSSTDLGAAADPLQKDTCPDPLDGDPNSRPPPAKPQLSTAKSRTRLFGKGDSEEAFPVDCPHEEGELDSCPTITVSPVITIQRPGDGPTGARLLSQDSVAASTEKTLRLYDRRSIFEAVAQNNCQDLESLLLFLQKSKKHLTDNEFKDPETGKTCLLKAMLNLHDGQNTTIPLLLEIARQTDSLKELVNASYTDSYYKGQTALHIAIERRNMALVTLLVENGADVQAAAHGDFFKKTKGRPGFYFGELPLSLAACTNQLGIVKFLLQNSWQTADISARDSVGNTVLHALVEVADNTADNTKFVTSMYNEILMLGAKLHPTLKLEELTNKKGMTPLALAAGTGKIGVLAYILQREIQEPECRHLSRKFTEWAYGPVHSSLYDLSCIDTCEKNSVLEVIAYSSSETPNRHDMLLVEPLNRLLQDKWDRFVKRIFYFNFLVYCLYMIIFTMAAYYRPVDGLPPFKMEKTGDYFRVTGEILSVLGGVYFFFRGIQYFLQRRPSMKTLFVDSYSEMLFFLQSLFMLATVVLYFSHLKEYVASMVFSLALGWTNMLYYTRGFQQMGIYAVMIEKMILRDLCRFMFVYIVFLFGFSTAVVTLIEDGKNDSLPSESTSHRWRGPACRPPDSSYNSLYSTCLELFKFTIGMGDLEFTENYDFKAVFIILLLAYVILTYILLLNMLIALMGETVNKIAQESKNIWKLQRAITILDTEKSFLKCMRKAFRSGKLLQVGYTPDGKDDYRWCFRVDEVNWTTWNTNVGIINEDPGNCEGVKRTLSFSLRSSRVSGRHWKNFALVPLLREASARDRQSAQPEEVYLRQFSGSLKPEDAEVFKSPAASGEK

With `CC(C)CC(CNc1ncnc2cc(-c3ncccc3C(F)(F)F)ccc12)c1ccccc1` (stereo not shown) [Compound 72, (4-Methyl-2-phenyl-pentyl)-[7-(3-trifluoromethyl-pyridin-2-yl)-quinazolin-4-yl]-amine], the IC50 (Table II) was at most 1000 nM. Consider `CCOCc1nc(NCCc2ccccc2Cl)c2ccc(-c3ncccc3Cl)nc2n1` [Compound 54, N-[2-(2-chlorophenyl)ethyl]-7-(3-chloropyridin-2-yl)-2-(ethoxymethyl)pyrido[2,3-d]pyrimidin-4-amine], for which, under “Table I”, the IC50 is at most 1000 nM. The same measure, in the same setting: for `CCOCc1nc(NCCc2cccc(OC)c2)c2ccc(-c3ncccc3Cl)nc2n1` [Compound 57, 7-(3-chloropyridin-2-yl)-2-(ethoxymethyl)-N-[2-(3-methoxyphenyl)ethyl]pyrido[2,3-d]pyrimidin-4-amine] the value was at most 1000 nM; for `C[C@@H]1CN(Cc2nc(NCCc3ccccc3Cl)c3ncc(-c4ncccc4Cl)cc3n2)C[C@H](C)O1` [Compound 29, N-[2-(2-chlorophenyl)ethyl]-7-(3-chloropyridin-2-yl)-2-{[(2R,6S)-2,6-dimethylmorpholin-4-yl]methyl}pyrido[3,2-d]pyrimidin-4-amine], at most 1000 nM; for `C[C@@H]1CN(Cc2nc(NCCc3ccccc3Cl)c3ccc(-c4ncccc4C(F)(F)F)cc3n2)C[C@H](C)O1` [Compound 24, N-[2-(2-chlorophenyl)ethyl]-2-{[(2R,6S)-2,6-dimethylmorpholin-4-yl]methyl}-7-[3-(trifluoromethyl)pyridin-2-yl]quinazolin-4-amine], at most 1000 nM. For the compound `Cc1ccccc1CCNc1nc(CN2CCC(C)CC(C)(C)C2)nc2cc(-c3ncccc3C(F)(F)F)ccc12` (stereo not shown) [Compound 107, (2-o-Tolyl-ethyl)-[7-(3-trifluoromethyl-pyridin-2-yl)-2-(3,3,5-trimethyl-azepan-1-ylmethyl)quinazolin-4-yl]-amine], the concentration for half-maximal inhibition (IC50) (Table II) is at most 1000 nM. `C[C@@H](CNc1ncnc2cc(-c3ncccc3C(F)(F)F)ccc12)c1ccccc1` [Compound 23, N-[(2R)~2-phenylpropyll]-7-[3-(trifluoromethyl)pyridin-2-yl]quinazolin-4-amine]: the half-maximal inhibitory concentration (IC50) (Table I) was at most 1000 nM. As to `CCCCC(CNc1ncnc2cc(-c3ncccc3C(F)(F)F)ccc12)c1ccccc1` (stereo not shown) [Compound 70, (2-Phenyl-hexyl)-[7-(3-trifluoromethyl-pyridin-2-yl)-quinazolin-4-yl]-amine], where the note is “Table II”, the IC50 was at most 1000 nM.

As for `Cc1ccccc1CCNc1ncnc2cc(-c3ncccc3C(F)(F)F)ccc12` [Compound 65, (2-o-Tolyl-ethyl)-[7-(3-trifluoromethyl-pyridin-2-yl)-quinazolin-4-yl]-amine], the concentration for half-maximal inhibition (IC50) (Table II) is at most 1000 nM. Take `FC(F)(F)c1cccnc1-c1ccc2c(N[C@@H]3C[C@H]3c3ccccc3)ncnc2c1` [Compound 31, N-[(1R,2S)-2-phenylcyclopropyl]-7-[3-(trifluoromethyl)pyridin-2-yl]quinazolin-4-amine]: the IC50 (Table I) is at most 1000 nM. In the case of `Cc1ccc(CCNc2ncnc3cc(-c4ncccc4C(F)(F)F)ccc23)cc1` [Compound 64, (2-p-Tolyl-ethyl)-[7-(3-trifluoromethyl-pyridin-2-yl)-quinazolin-4-yl]-amine], for the setting “Table II”, the IC50 was at most 1000 nM. Consider `CC(C)COCc1nc(NCCc2cccc(F)c2)c2ccc(-c3ncccc3C(F)(F)F)nc2n1` [Compound 36, N-[2-(3-fluorophenyl)ethyl]-2-(isobutoxymethyl)-7-[3-(trifluoromethyl)pyridin-2-yl]pyrido[2,3-d]pyrimidin-4-amine], for which, where the note is “Table I”, the IC50 was at most 1000 nM. Regarding `CC1(C)CCCN(Cc2nc(NCCc3ccccc3)c3ccc(-c4ncccc4C(F)(F)F)cc3n2)C1` [Compound 100, [2(3,3-Dimethyl-piperidin-1-ylmethyl)-7-(3-trifluoromethyl-pyridin-2-yl)-quinazolin-4-yl]-phenethyl-amine], the IC50 (Table II) was at most 1000 nM. `FC(F)(F)c1cccnc1-c1ccc2c(NCCc3ccc(Cl)cc3)ncnc2c1` [Compound 14, N-[2-(4-chlorophenyl)ethyl]-7-[3-(trifluoromethyl)pyridin-2-yl]quinazolin-4-amine]: the IC50 (Table I) is at most 1000 nM. Take `CCN(Cc1nc(NCCc2ccccc2C)c2ccc(-c3ncccc3C(F)(F)F)cc2n1)C1CCCCC1` [Compound 164, [2-[(Cyclohexyl-ethyl amino)-methyl]-7-(3-trifluoromethyl-pyridin-2-yl)-quinazolin-4-yl]-(2-o-tolyl-ethyl)-amine]: the IC50 (Table II) was at most 1000 nM.

For the compound `CCCCCN(CCCCC)Cc1nc(NCCc2ccccc2C)c2ccc(-c3ncccc3C(F)(F)F)cc2n1` [Compound 171, [2-Dipentylaminomethyl-7-(3-trifluoromethyl-pyridin-2-yl)-quinazolin-4-yl]-(2-o-tolyl-ethyl)-amine], where the note is “Table II”, the 50% inhibitory concentration (IC50) is at most 1000 nM.

Consider `FC(F)(F)c1cccnc1-c1ccc2c(NCCc3ccc(Cl)c(Cl)c3)ncnc2c1` [Compound 20, N-[2-(3,4-dichlorophenyl)ethyl]-7-[3-(trifluoromethyl)pyridin-2-yl]quinazolin-4-anmne], for which the IC50 (Table I) is at most 1000 nM.

For the compound `CCOCc1nc(NC2Cc3ccccc3C2)c2ccc(-c3ncccc3Cl)nc2n1` [Compound 62, 7-(3-chloropyridin-2-yl)-N-(2,3-dihydro-1H-inden-2-yl)-2-(ethoxymethyl)pyrido[2,3-d]pyrimidin-4-amine], the IC50 (Table I) was at most 1000 nM. Still for that read-out and setting: in the case of `C[C@H](CNc1ncnc2cc(-c3ncccc3C(F)(F)F)ccc12)c1ccccc1` [Compound 25, N-[(2S)-2-phenylpropyl]-7-[3 (trifluoromethyl)pyridin-2-yl]quinazolin-4-amine] it was at most 1000 nM.

Turning to `COCCN(CCOC)Cc1nc(NCCc2ccccc2C)c2ccc(-c3ncccc3C(F)(F)F)cc2n1` [Compound 168, [2-{[Bis-(2-methoxy-ethyl)-amino]-methyl}-7-(3 trifluoromethyl-pyridin-2-yl)-quinazolin-4-yl]-(2-o-tolyl-ethyl)-amine], the IC50 (Table II) was at most 1000 nM. The same measure, in the same setting: in the case of `FC(F)(F)c1cccnc1-c1ccc2c(NC3Cc4ccccc4C3)ncnc2c1` [Compound 76, Indan-2-yl-[7-(3-trifluoromethyl-pyridin-2-yl)-quinazolin-4-yl]-amine] it was at most 1000 nM. With `CC(C)COCc1nc(NCCc2ccc(F)cc2)c2ccc(-c3ncccc3C(F)(F)F)nc2n1` [Compound 37, N-[2-(4-fluorophenyl)ethyl]-2-(isobutoxymethyl)-7-[3-(trifluoromethyl)pyridin-2-yl]pyrido[2,3-d]pyrimidin-4-amine], the IC50 (Table I) was at most 1000 nM. On the same count and under the same terms, for `CC(C)COCc1nc(NCCc2ccccc2C(F)(F)F)c2ccc(-c3ncccc3Cl)nc2n1` [Compound 50, 7-(3-chloropyridin-2-yl)-2-(isobutoxymethyl)-N-{2-[2-(trifluoromethyl)phenyl]ethyl}pyrido[2,3-d]pyrimidin-4-amine] the value was at most 1000 nM. Same read-out and setting: in the case of `Fc1cc(F)cc(CCNc2ncnc3cc(-c4ncccc4C(F)(F)F)ccc23)c1` [Compound 28, N-[2-(3,5-difluorophenyl)ethyl]-7-[3-(trifluoromethyl)pyridin-2-yl]quinazolin-4-amine] it was at most 1000 nM. With `CCCN(Cc1nc(NCCc2ccccc2C)c2ccc(-c3ncccc3C(F)(F)F)cc2n1)CC1CC1` [Compound 140, [2-[(Cyclopropylmethyl-propyl-amino)-methyl]-7-(3-trifluoromethyl-pyridin-2-yl)-quinazolin-4-yl]-(2-o-tolyl-ethyl)-amine], the IC50 (Table II) was at most 1000 nM.
